Entries after “also recorded” stand apart in the source; their conditions may differ.
Columns and labels:
chymotrypsin = chymotrypsin (Bos taurus, UniProt P00766); experiment: Incubation with chymotrypsin in simulated intestinal fluid, LC-HRMS; conditions: for site of cleavage (amide hydrolysis) by chymotrypsin: chymotrypsin 500 μg/mL in SIF, 10 μM peptide, 37°C, up to 120 min, metabolite structures from LC-HRMS/MS (Mass-MetaSite)
Protocol: (§4) Incubations with dataset-1 were performed using isolated enzymes. We investigated serine proteases like trypsin, chymotrypsin, and pancreatic elastase (E 3.4.21.1, E 3.4.21.4, E 3.4.21.36) at a concentration of 500 μg/mL in simulated intestinal fluid (SIF) and the aspartic protease pepsin (E 3.4.23.1) at a concentration of 500 μg/mL in simulated gastric fluid (SGF). Proteases were purchased from Sigma Aldrich and SIF and SGF were purchased from RICCA Chemical Company (Arlington, TX, USA). […] All incubations were conducted at 37°C.
Negative control samples were prepared under the same conditions of the incubation (see above), containing each enzyme but without adding probe compounds. Probe compounds were added to 96-well plates (Micronic 0.75 mL V-bottom) using a Hewlett Packard HPD300e. […] Each well was a time point, with five timepoints (0, 5, 15, 45 and 120 min) per compound per protease. Incubations were carried out using a Hamilton MicroLab STAR Plus liquid-handler to initiate, conduct and stop incubation reactions within a single automated method. The incubation plates were placed in heated shakers present on the deck of the liquid-handler and operated at 37°C and 400 rpm shaking speed. Reactions were started with the addition of the enzyme at the appropriate time to allow for all reactions to be quenched at a single time. Incubation quenching was again carried out by the Hamilton STAR Plus with the addition of 100 μL of acetonitrile with 1% formic acid (FA) or 1% ammonium hydroxide (pepsin-only) and the internal standard (melanotan) at a concentration of 1 μM. Following reaction quenching, the samples were vortexed for approximately 2 min and the time zero sample was generated by aliquoting 50 nL of the appropriate stock compound into quenched control samples. The samples were then centrifuged in a Beckman Allegra 25R at 6000 rcf for 20 min at 10°C. Resulting supernatant was transferred to Eppendorf LoBind 96-well plates and 1 μL was injected onto a Waters Acquity BEH-C18 1 x 50 mm, 1.7 μm column via a Waters Acquity M-Class ultra-performance liquid chromatography (UPLC) autosampler. All time points were analyzed using a data-dependent MS/MS method.
For dataset-1, chromatographic separation of metabolites was performed using the ACQUITY UPLC system (Waters, Milford, MA, USA). The ACQUITY UPLC BEH C18 column (1.0 × 50 mm, 1.7 μm) was heated to 60°C. The mobile phase consisted of 0.1% FA in water (eluent A) and 0.1% formic acid in acetonitrile (eluent B) at a flow rate of 75 μL/min. The initial condition was 10% eluent B, which was maintained for 0.1 min. Eluent B was then increased via a linear gradient to 40% until 3.1 min and further increased to 90% via linear gradient to 3.6 min. Eluent B was then held at 90% until 4.0 min when it was ramped down to 10% by 4.05 min and held until the end of the run at 6 min. […] Full scan/data-dependent MS/MS analyses were run on a Thermo Scientific Q-Exactive Plus mass spectrometer operated in positive electrospray ionization (ESI) mode. The MS and MS/MS acquisition scans were operated with a resolution setting of 17,500 for both, with an automatic gain control (AGC) setting of 1E6 and maximum injection time of 100 ms for MS and AGC of 2E5 and max injection time of 50 ms for full scan/data-dependent MS/MS.

neprilysin (NEP) = neprilysin (NEP) (Homo sapiens, UniProt P08473); experiment: Incubation with neprilysin in Hank's buffered salt solution, LC-HRMS; conditions: NEP 2 μg/mL in Hank's buffered salt solution, 37°C, 2, 4, 8, 24 hr (GLP-1 0, 5, 15, 30, 60 min), Fig 12b
Chain of neprilysin (NEP) (P08473 whole entry): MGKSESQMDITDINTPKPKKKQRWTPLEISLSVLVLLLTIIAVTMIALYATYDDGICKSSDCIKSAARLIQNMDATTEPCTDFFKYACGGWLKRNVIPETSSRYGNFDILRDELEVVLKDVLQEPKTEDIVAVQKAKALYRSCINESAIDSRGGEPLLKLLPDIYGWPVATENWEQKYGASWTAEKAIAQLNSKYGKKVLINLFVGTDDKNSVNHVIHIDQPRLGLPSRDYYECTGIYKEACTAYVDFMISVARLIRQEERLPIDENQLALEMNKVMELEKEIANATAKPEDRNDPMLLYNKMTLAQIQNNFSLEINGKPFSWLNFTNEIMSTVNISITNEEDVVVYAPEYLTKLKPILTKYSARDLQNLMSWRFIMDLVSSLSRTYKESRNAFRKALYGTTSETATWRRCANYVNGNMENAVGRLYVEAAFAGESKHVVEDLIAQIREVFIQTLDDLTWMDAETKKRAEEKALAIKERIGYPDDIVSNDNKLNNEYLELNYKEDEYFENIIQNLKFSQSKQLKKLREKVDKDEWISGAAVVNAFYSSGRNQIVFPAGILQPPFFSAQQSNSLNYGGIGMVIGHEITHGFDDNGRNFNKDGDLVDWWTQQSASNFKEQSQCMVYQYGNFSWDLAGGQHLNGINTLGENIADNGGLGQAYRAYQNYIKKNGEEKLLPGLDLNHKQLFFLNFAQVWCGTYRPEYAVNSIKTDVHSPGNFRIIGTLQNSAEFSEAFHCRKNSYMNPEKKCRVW
Protocol: (§1) Incubations with dataset-1 were performed using isolated enzymes. […] All incubations were conducted at 37°C.
(§2) The dataset-2 peptide incubations were performed at Roche Innovation Center Basel F. Hoffmann-La Roche Ltd., (Hoffmann-La Roche, Basel, Switzerland) using isolated enzymes. For both DPP-4 and NEP incubations, a solution of the respective enzyme in Hank’s buffered salt solution was pre-incubated at 37°C for 3 to 5 min, in 96-well plate Nunc (Thermo Scientific, 163320) before the addition of 30 μL of test substance to give final concentrations of 2 μg/mL DPP-4 or 2 μg/mL NEP. Negative control samples were prepared under the same conditions (see above), containing each enzyme but without adding test compound. […] Reactions were started with the addition of […] and then quenched at each time point with 75 μL cold acetonitrile containing 1% FA followed by thorough mixing. The samples were centrifuged at 4°C for 15 min at 14,000g, and the supernatant was collected. The metabolite profile was immediately analyzed.
(§3) To generate dataset-2, a Thermo Scientific Dionex UltiMate 3000 RS UPLC system in combination with a Pal autosampler (CTC Analytics AG, Zwingen, Switzerland) was used. Chromatographic separation was performed using an Acquity CSHT Phenyl-Hexyl Column (1.7 μm, 2.1 x 100 mm). The mobile phases consisted of A: H2O/0.1% FA and B: methanol/0.1% FA. […]

[1] = target: T1, dipeptidyl peptidase-4 (DPP-4) (Homo sapiens, UniProt P27487); experiment: Incubation with dipeptidyl peptidase-4 in Hank's buffered salt solution, LC-HRMS; assay type: in vitro ADME; conditions: DPP-4 2 μg/mL in Hank's buffered salt solution
T1 construct: purchased Sigma D3446; host or cells: Sf9 cells
T1 sequence (P27487 whole entry): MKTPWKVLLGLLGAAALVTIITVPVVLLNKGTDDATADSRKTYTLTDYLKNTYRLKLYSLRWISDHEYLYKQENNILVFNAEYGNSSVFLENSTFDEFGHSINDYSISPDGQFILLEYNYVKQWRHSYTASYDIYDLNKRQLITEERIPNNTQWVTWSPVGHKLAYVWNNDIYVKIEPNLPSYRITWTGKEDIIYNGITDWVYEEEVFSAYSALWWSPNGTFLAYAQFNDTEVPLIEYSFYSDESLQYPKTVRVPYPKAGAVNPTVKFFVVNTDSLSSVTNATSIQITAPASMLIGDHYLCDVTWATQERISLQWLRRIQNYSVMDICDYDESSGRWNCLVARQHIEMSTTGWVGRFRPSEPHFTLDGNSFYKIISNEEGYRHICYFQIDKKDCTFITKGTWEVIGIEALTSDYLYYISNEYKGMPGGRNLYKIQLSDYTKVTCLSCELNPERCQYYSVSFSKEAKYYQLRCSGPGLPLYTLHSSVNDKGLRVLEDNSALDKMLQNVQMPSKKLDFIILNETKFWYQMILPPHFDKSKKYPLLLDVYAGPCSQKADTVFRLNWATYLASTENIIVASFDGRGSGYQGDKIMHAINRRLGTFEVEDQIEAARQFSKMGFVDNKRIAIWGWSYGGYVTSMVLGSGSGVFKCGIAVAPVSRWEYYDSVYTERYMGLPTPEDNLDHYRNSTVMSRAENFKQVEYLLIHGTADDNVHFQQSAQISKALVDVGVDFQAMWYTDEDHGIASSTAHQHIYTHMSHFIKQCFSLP
Protocol: as §1, §2, §3

pancreatic elastase = target: T2, pancreatic elastase (Sus scrofa, UniProt P00772); experiment: Incubation with pancreatic elastase in simulated intestinal fluid, LC-HRMS; assay type: in vitro ADME, porcine; conditions: elastase 500 μg/mL in SIF pH 7.4-7.6, 10 μM peptide, 37°C, 0, 5, 15, 45, 120 min, internal standard melanotan, Fig 11c
T2 construct: porcine pancreas; purchased Sigma (Sigma Aldrich) E0258; host or cells: porcine pancreas (tissue-derived)
T2 sequence (P00772 27-266): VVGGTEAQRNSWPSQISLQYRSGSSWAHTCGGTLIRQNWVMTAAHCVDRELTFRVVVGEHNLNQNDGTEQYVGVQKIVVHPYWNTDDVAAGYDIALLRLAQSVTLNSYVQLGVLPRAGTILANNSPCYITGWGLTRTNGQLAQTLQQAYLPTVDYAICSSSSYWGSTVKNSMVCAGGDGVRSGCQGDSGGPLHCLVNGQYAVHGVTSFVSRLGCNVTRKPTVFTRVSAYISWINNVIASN
Protocol: as §1
Supporting Table 1: Incubation conditions and proteases characteristics
Chymotrypsin Trypsin Elastase Pepsin
αChymotrypsin from Trypsin from Elastase from Pepsin from porcine
Protease bovine pancreas, bovine pancreas, porcine pancreas, gastric mucosa,
Internal Melanotan II acetate salt,
Mobile Phase Water +0.1% formic acid
Mobile Phase Acetonitrile+0.1% formic acid […]
Quadrupole -Orbitrap Mass Spectrometer

trypsin = target: T3, trypsin (Bos taurus, UniProt P00760); experiment: Incubation with trypsin in simulated intestinal fluid, LC-HRMS
T3 sequence (P00760 24-246): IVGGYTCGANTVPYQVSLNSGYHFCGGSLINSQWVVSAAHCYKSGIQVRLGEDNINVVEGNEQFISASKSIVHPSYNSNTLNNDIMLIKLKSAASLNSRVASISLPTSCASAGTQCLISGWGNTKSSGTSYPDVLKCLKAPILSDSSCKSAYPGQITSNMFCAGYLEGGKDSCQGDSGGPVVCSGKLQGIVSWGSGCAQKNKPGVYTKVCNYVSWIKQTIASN
Protocol: as §4
Negative control samples were prepared under the same conditions of the incubation (see above), containing each enzyme but without adding probe compounds. Probe compounds were added to 96-well plates (Micronic 0.75 mL V-bottom) using a Hewlett Packard HPD300e. […] Each well was a time point, with five timepoints (0, 5, 15, 45 and 120 min) per compound per protease. Incubations were carried out using a Hamilton MicroLab STAR Plus liquid-handler to initiate, conduct and stop incubation reactions within a single automated method. The incubation plates were placed in heated shakers present on the deck of the liquid-handler and operated at 37°C and 400 rpm shaking speed. Reactions were started with the addition of the enzyme at the appropriate time to allow for all reactions to be quenched at a single time. Incubation quenching was again carried out by the Hamilton STAR Plus with the addition of 100 μL of acetonitrile with 1% formic acid (FA) or 1% ammonium hydroxide (pepsin-only) and the internal standard (melanotan) at a concentration of 1 μM. Following reaction quenching, the samples were vortexed for approximately 2 min and the time zero sample was generated by aliquoting 50 nL of the appropriate stock compound into quenched control samples. The samples were then centrifuged in a Beckman Allegra 25R at 6000 rcf for 20 min at 10°C. […] All time points were analyzed using a data-dependent MS/MS method. […]

CCNC(=O)[C@@H]1CCCN1C(=O)[C@H](CCCNC(=N)N)NC(=O)[C@H](CC(C)C)NC(=O)[C@@H](COC(C)(C)C)NC(=O)[C@H](Cc1ccc(O)cc1)NC(=O)[C@H](CO)NC(=O)[C@H](Cc1c[nH]c2ccccc12)NC(=O)[C@H](Cc1cnc[nH]1)NC(=O)[C@@H]1CCC(=O)N1 [buserelin, Buserelin]
site of cleavage (amide hydrolysis) by chymotrypsin (chymotrypsin): amide hydrolysis of the Trp-Ser bond; also recorded: amide hydrolysis of the Tyr-D-Ser(tBu) bond

CCCCCCCCCCCCCCCC(=O)N[C@@H](CCC(=O)NCCCC[C@H](NC(=O)[C@H](C)NC(=O)[C@H](C)NC(=O)[C@H](CCC(N)=O)NC(=O)CNC(=O)[C@H](CCC(=O)O)NC(=O)[C@H](CC(C)C)NC(=O)[C@H](Cc1ccc(O)cc1)NC(=O)[C@H](CO)NC(=O)[C@H](CO)NC(=O)[C@@H](NC(=O)[C@H](CC(=O)O)NC(=O)[C@H](CO)NC(=O)[C@@H](NC(=O)[C@H](Cc1ccccc1)NC(=O)[C@@H](NC(=O)CNC(=O)[C@H](CCC(=O)O)NC(=O)[C@H](C)NC(=O)[C@@H](N)Cc1cnc[nH]1)[C@@H](C)O)[C@@H](C)O)C(C)C)C(=O)N[C@@H](CCC(=O)O)C(=O)N[C@@H](Cc1ccccc1)C(=O)N[C@H](C(=O)N[C@@H](C)C(=O)N[C@@H](Cc1c[nH]c2ccccc12)C(=O)N[C@@H](CC(C)C)C(=O)N[C@H](C(=O)N[C@@H](CCCNC(=N)N)C(=O)NCC(=O)N[C@@H](CCCNC(=N)N)C(=O)NCC(=O)O)C(C)C)[C@@H](C)CC)C(=O)O [liraglutide, Liraglutide]
metabolic stability with NEP: percent parent peptide remaining with respect to time, compared in words (neprilysin (NEP)): digested faster than the other compounds; also recorded: NEP acted slower as compared to DPP-4 | metabolic stability with DPP-4: percent parent peptide remaining with respect to time, compared in words ([1]; 37°C, 2, 4, 8, 24 hr (GLP-1 0, 5, 15, 30, 60 min), LC-HRMS, Fig 12a): digested faster than the other compounds | site of cleavage (amide hydrolysis) by DPP-4 ([1]; 37°C, metabolite structures from LC-HRMS/MS (Mass-MetaSite)): mainly metabolized by DPP-4 at the SoC Ala-Glu

C[C@@H](O)[C@@H]1NC(=O)[C@H](CCCCN)NC(=O)[C@@H](Cc2c[nH]c3ccccc23)NC(=O)[C@H](Cc2ccccc2)NC(=O)[C@@H](NC(=O)[C@H](N)Cc2ccccc2)CSSC[C@@H](C(=O)N[C@H](CO)[C@@H](C)O)NC1=O [octreotide, Octreotide]
metabolic stability with pancreatic elastase: percent parent peptide remaining with respect to time, compared in words (pancreatic elastase): digested significantly faster than the larger secretin and calcitonin, but it was slower than oxytocin

CC[C@H](C)[C@@H]1NC(=O)[C@H](Cc2ccc(O)cc2)NC(=O)[C@@H](N)CSSC[C@@H](C(=O)N2CCC[C@H]2C(=O)N[C@@H](CC(C)C)C(=O)NCC(N)=O)NC(=O)[C@H](CC(N)=O)NC(=O)[C@H](CCC(N)=O)NC1=O [oxytocin, Oxytocin]
metabolic stability with chymotrypsin: percent parent peptide remaining with respect to time, compared in words (chymotrypsin; chymotrypsin 500 μg/mL in SIF pH 7.4-7.6, 10 μM peptide, 37°C, 0, 5, 15, 45, 120 min, LC-HRMS, internal standard melanotan, Fig 11b): digested slower than calcitonin | site of cleavage (amide hydrolysis) by chymotrypsin (chymotrypsin): cleavage of Leu-Gly; also recorded: Tyr-Ile (M1-38, cycle opening) | metabolic stability with trypsin: percent parent peptide remaining with respect to time, compared in words (trypsin; trypsin 500 μg/mL in SIF pH 7.4-7.6, 10 μM peptide, 37°C, 0, 5, 15, 45, 120 min, LC-HRMS, internal standard melanotan, Fig 11a): digested slower than calcitonin; also recorded: hydrolyzed slower than all other peptides

Glp-His-Trp-Ser-Tyr-HisBzl-Leu-Arg-Pro-NHEt [histrelin, Histrelin, synthetic LHRH analogue, Sigma L2761]
metabolic stability with pancreatic elastase: percent parent peptide remaining with respect to time, compared in words (pancreatic elastase): slower than for leuprolide

Glp-His-Trp-Ser-Tyr-Ser-tBu-Leu-Arg-Pro-NHNHCONH2 [goserelin, Goserelin]
site of cleavage (amide hydrolysis) by trypsin (trypsin; trypsin 500 μg/mL in SIF, 10 μM peptide, 37°C, up to 120 min, metabolite structures from LC-HRMS/MS (Mass-MetaSite)): also when the C-terminal Pro was modified to Pro-NHNHCONH2 in goserelin

Source: publication PMC5665424, “Software-aided approach to investigate peptide structure and metabolic susceptibility of amide bonds in peptide drugs based on high resolution mass spectrometry” (PLoS ONE, 2017)
